Article PMC5846083 (Journal of Medicinal Chemistry, 2018)
pIC50: −log10 of the molar value.

Legend:
hERG = hERG (Homo sapiens, UniProt Q12809); test: hERG competitive displacement fluorescence polarization assay
rat sperm [1] = test: Rat sperm motility in vitro; type: cell-based; details: for maximum reduction of sperm motility: even at high concentrations
Na,K-ATPase α4 = Na,K-ATPase α4 (Rattus norvegicus, UniProt Q64541); test: Inhibition of Na,K-ATPase α4 activity; type: biochemical; details: for loss of Na,K-ATPase α4 inhibitory activity versus comparator: 29 versus 32, 19 versus 25; for IC50 for Na,K-ATPase α4 inhibition (Figure 1): recombinant rat α4, mean of two experiments in quadruplicate; for reduced activity compared to ouabain: Na,K-ATPase α4 inhibition
Chain of Na,K-ATPase α4 (Q64541 whole entry, other chains not shown, canonical isoform): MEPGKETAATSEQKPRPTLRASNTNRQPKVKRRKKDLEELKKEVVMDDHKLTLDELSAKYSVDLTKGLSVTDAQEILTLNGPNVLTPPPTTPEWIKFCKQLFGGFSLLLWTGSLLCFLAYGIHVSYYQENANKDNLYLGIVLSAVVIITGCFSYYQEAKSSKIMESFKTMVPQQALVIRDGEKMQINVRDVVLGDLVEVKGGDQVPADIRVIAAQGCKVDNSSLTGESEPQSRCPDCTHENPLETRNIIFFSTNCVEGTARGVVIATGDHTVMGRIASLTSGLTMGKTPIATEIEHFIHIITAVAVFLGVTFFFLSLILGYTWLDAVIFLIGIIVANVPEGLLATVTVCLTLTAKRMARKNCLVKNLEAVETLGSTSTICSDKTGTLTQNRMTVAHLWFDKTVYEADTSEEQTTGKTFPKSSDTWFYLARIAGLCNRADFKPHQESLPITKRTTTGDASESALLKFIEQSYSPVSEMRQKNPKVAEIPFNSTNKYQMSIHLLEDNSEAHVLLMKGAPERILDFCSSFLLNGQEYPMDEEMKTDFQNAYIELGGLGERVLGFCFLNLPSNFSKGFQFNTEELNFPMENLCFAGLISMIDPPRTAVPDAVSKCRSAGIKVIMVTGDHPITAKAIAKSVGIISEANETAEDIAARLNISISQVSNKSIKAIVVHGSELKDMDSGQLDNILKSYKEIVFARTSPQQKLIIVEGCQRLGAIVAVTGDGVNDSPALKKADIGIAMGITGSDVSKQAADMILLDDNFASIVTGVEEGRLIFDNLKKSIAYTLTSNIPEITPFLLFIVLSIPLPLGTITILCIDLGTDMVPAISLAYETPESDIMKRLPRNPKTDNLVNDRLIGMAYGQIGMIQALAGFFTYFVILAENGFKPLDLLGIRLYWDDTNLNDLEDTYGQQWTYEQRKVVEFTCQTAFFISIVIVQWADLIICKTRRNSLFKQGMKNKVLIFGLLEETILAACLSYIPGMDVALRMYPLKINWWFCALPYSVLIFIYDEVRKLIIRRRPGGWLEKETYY

human Na,K-ATPase α4 = details: human isoforms; cited from earlier work
rat sperm [2] = test: Sperm intracellular Ca2+, Calcium Green; type: cell-based; details: 10^–8 M, 1 h
rat sperm [3] = test: Sperm intracellular pH, SNARF-1; type: cell-based; details: 10^–8 M, 1 h
rat sperm [4] = test: Sperm hyperactivated motility under capacitating conditions; details: 10^–8 M, 1 h, capacitating medium
[5] = General toxicity in treated rats; type: in vivo, rat; details: oral gavage, 5–20 mg/kg
rat sperm [6] = test: Sperm membrane potential; type: cell-based; details: 10^–8 M, 1 h

Chain of hERG (Q12809 whole entry): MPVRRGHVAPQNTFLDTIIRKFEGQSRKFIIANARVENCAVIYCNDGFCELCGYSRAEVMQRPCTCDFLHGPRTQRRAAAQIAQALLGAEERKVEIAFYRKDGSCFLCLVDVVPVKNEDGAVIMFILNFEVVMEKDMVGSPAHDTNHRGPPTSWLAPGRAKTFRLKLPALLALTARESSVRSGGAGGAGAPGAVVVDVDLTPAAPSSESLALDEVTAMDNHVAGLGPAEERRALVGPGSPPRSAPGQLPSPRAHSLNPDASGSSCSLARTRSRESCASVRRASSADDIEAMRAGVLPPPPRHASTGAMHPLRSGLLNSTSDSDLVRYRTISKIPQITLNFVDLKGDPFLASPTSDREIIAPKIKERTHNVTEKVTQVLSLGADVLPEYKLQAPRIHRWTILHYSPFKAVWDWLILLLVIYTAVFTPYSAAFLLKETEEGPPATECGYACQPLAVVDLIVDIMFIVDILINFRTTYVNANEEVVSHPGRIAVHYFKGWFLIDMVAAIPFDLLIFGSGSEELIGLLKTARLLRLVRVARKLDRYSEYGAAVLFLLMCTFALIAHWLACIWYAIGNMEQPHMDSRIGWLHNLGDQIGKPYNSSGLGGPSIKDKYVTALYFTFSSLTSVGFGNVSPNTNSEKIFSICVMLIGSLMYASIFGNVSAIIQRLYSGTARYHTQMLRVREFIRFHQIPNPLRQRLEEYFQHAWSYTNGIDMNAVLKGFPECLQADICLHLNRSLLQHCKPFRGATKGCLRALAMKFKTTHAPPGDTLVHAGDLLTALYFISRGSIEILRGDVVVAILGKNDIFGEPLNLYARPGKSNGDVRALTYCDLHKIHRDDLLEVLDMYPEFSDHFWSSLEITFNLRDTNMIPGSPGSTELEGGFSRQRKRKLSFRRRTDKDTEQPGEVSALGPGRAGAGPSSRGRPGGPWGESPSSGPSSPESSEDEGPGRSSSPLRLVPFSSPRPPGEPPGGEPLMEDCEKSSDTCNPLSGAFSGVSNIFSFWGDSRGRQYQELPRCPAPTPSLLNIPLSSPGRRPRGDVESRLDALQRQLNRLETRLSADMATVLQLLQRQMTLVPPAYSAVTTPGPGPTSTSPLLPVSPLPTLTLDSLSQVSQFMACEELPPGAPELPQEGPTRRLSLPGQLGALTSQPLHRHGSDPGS

## COCO[C@@H]1[C@H]2OC(C)(C)O[C@H]2[C@H](O[C@H]2C[C@H]3OC(C)(C)OC[C@]34[C@@H]3[C@@H](CC[C@]4(O)C2)[C@@]2(O)CC[C@H](CO)[C@@]2(C)C[C@H]3OCOC)O[C@H]1C [Compound 10, (3S,3aR,5R,5aS,5bR,9aR,11S,12aS,14aR,14bS)-3-(Hydroxymethyl)-5-(methoxymethoxy)-11-(((3aR,4R,6S,7S,7aR)-7-(methoxymethoxy)-2,2,6-trimethyltetrahydro-4H-[1,3]dioxolo[4,5-c]pyran-4-yl)oxy)-3a,8,8-trimethyltetradecahydro-6H-cyclopenta[7,8]phenanthro[4,4a-d][1,3]dioxine-12a,14b-diol]
hERG
  pIC50: < 4.22
Rat sperm [1]; 1 h incubation
  effect on other parameters of sperm movement (progressive motility, velocities, linearity, beat cross frequency): directly block all parameters of sperm movement
Rat sperm [1]
  maximum reduction of sperm motility: 50–60%

## COc1ccc(-c2cn(C[C@H]3CC[C@]4(O)[C@@H]5CC[C@]6(O)C[C@@H](O)C[C@@H](O)[C@]6(CO)[C@H]5[C@H](O)C[C@]34C)nn2)cc1 [Compound 19, (1R,3S,5S,8R,9S,10R,11R,13R,14S,17S)-10-(Hydroxymethyl)-17-((4-(4-methoxyphenyl)-1H-1,2,3-triazol-1-yl)methyl)-13-methyltetradecahydro-5H-cyclopenta[a]phenanthrene-1,3,5,11,14(2H)-pentaol]
Na,K-ATPase α4
  loss of Na,K-ATPase α4 inhibitory activity versus comparator: 7 orders of magnitude

## C[C@]12CC[C@H]3[C@@H](CC[C@]4(O)C[C@@H](O)CC[C@]34C=O)[C@@]1(O)CC[C@@H]2C1=CC(=O)OC1 [strophanthidin, reference compound]
Na,K-ATPase α4
  IC50 for Na,K-ATPase α4 inhibition (Figure 1): 10^–8 to 10^–9 M

## C[C@@H]1O[C@@H](O[C@H]2C[C@@H](O)[C@]3(CO)[C@H]4[C@H](O)C[C@]5(C)[C@@H](C6=CC(=O)OC6)CC[C@]5(O)[C@@H]4CC[C@]3(O)C2)[C@H](O)[C@H](O)[C@H]1O [ouabain]
Human Na,K-ATPase α4
  sensitivity to ouabain, human Na,K-ATPase α4 versus α1: ~100 fold

## COCO[C@H]1C[C@H]2OC(C)(C)OC[C@]23[C@@H]2[C@@H](CC[C@]3(O)C1)[C@@]1(OCOC)CC[C@H](C(=O)O)[C@@]1(C)C[C@H]2OCOC [Compound 32, (3S,3aR,5R,5aS,5bR,9aR,11S,12aS,14aR,14bS)-12a-Hydroxy-5,11,14b-tris(methoxymethoxy)-3a,8,8-trimethylhexadecahydro-6H-cyclopenta[7,8]phenanthro[4,4a-d][1,3]dioxine-3-carboxylic Acid]
Na,K-ATPase α4
  reduced activity compared to ouabain: about 10 fold

## CO[C@H]1C[C@H](O[C@H]2CC[C@]3(C=O)[C@H]4CC[C@]5(C)[C@@H](C6=CC(=O)OC6)CC[C@]5(O)[C@@H]4CC[C@]3(O)C2)O[C@H](C)[C@H]1O [cymarin, reference compound]
Na,K-ATPase α4
  IC50 for Na,K-ATPase α4 inhibition (Figure 1): 10^–8 to 10^–9 M

## COCO[C@H]1C[C@H]2OC(C)(C)OC[C@]23[C@@H]2[C@@H](CC[C@]3(O)C1)[C@@]1(OCOC)CC[C@H](C#N)[C@@]1(C)C[C@H]2OCOC [Compound 29, (3S,3aR,5R,5aS,5bR,9aR,11S,12aS,14aR,14bS)-12a-Hydroxy-5,11,14b-tris(methoxymethoxy)-3a,8,8-trimethylhexadecahydro-6H-cyclopenta[7,8]phenanthro[4,4a-d][1,3]dioxine-3-carbonitrile]
Na,K-ATPase α4
  loss of Na,K-ATPase α4 inhibitory activity versus comparator: 3 orders of magnitude

## C[C@]12C[C@@H](O)[C@H]3[C@@H](CC[C@]4(O)C[C@@H](O)C[C@@H](O)[C@]34CO)[C@@]1(O)CCC2c1cn(Cc2ccc(F)cc2)nn1 (mixture of isomers) [Compound 27, (1R,3S,5S,8R,9S,10R,11R,13R,14S,17S)-17-(1-(4-Fluorobenzyl)-1H-1,2,3-triazol-4-yl)-10-(hydroxymethyl)-13-methyltetradecahydro-5H-cyclopenta[a]phenanthrene-1,3,5,11,14(2H)-pentaol]
Na,K-ATPase α4
  pIC50: 7.52

## COCO[C@H]1C[C@H]2OC(C)(C)OC[C@]23[C@@H]2[C@@H](CC[C@]3(O)C1)[C@@]1(OCOC)CC[C@H](CO)[C@@]1(C)C[C@H]2OCOC [Compound 17, (3S,3aR,5R,5aS,5bR,9aR,11S,12aS,14aR,14bS)-3-(Hydroxymethyl)-5,11,14b-tris(methoxymethoxy)-3a,8,8-trimethyltetradecahydro-6H-cyclopenta[7,8]phenanthro[4,4a-d][1,3]dioxin-12a(1H)-ol]
hERG
  pIC50: < 4.22
Rat sperm [1]; 1 h incubation
  effect on other parameters of sperm movement (progressive motility, velocities, linearity, beat cross frequency): directly block all parameters of sperm movement
Rat sperm [1]
  maximum reduction of sperm motility: 50–60%

## COCO[C@@H]1[C@H]2OC(C)(C)O[C@H]2[C@H](O[C@H]2C[C@H]3OC(C)(C)OC[C@]34[C@@H]3[C@@H](CC[C@]4(O)C2)[C@@]2(O)CC[C@H](C#N)[C@@]2(C)C[C@H]3OCOC)O[C@H]1C [Compound 11, (3S,3aR,5R,5aS,5bR,9aR,11S,12aS,14aR,14bS)-12a,14b-Dihydroxy-5-(methoxymethoxy)-11-(((3aR,4R,6S,7S,7aR)-7-(methoxymethoxy)-2,2,6-trimethyltetrahydro-4H-[1,3]dioxolo[4,5-c]pyran-4-yl)oxy)-3a,8,8-trimethylhexadecahydro-6H-cyclopenta[7,8]phenanthro[4,4a-d][1,3]dioxine-3-carbonitrile]
Na,K-ATPase α4
  reduced activity compared to ouabain: about 10 fold

## C[C@]12C[C@@H](O)[C@H]3[C@@H](CC[C@]4(O)C[C@@H](O)C[C@@H](O)[C@]34CO)[C@@]1(O)CC[C@@H]2c1cn(Cc2ccccc2)nn1 [Compound 25, (1R,3S,5S,8R,9S,10R,11R,13R,14S,17S)-17-(1-Benzyl-1H-1,2,3-triazol-4-yl)-10-(hydroxymethyl)-13-methyltetradecahydro-5H-cyclopenta[a]phenanthrene-1,3,5,11,14(2H)-pentaol]
Rat sperm [2]
  increase of [Ca2+]i in sperm: approximately 40%
Rat sperm [3]
  effect on sperm intracellular pH: caused intracellular sperm acidification
hERG
  pIC50: < 4.22
Rat sperm [4]
  reduction of hyperactivation accompanying sperm capacitation: approximately 70%
Rat sperm [1]; 10^–8 M and higher, 1 h incubation
  decrease of total sperm motility: approximately 60%
Rat sperm [1]; 1 h incubation
  effect on other parameters of sperm movement (progressive motility, velocities, linearity, beat cross frequency): directly block all parameters of sperm movement
Rat sperm [1]
  maximum reduction of sperm motility: 50–60%
[5]
  toxic effect on treated rats: did not exert any major toxic effect
Rat sperm [6]
  increase of sperm Vm (plasma membrane depolarization): approximately 40%
